In the NIST ThermoML archive (doi:10.1016/j.fluid.2006.08.007):

Key:
[1] = excess molar enthalpy (molar enthalpy of mixing); xn = mol fraction of the nth substance listed; conditions: 298.15 K, 101 kPa, Liquid, Flow calorimetry
[2] = Liquid, Closed cell (Static) method

CC#CCCC [2-hexyne] + COC(C)(C)C
[1]
Conditions | excess molar enthalpy [kcal/mol]
x1 = 0.1527 | -0.0143
x1 = 0.2965 | -0.0263
x1 = 0.4852 | -0.0359
x1 = 0.6624 | -0.0351
x1 = 0.7708 | -0.0287
x1 = 0.8513 | -0.0203

C#CCCCC [1-hexyne] + COC(C)(C)C
[1]
Conditions | excess molar enthalpy [kcal/mol]
x1 = 0.1111 | -0.0332
x1 = 0.2113 | -0.0641
x1 = 0.3134 | -0.0884
x1 = 0.389 | -0.1
x1 = 0.4482 | -0.104
x1 = 0.5204 | -0.102
x1 = 0.6206 | -0.0901
x1 = 0.7263 | -0.0712
x1 = 0.8179 | -0.0526
x1 = 0.9011 | -0.0339

CC#CCCC [2-hexyne]
[2]
Conditions | vapor or sublimation pressure [kPa]
263.15 K | 1.393
273.15 K | 2.608
283.15 K | 4.631
293.15 K | 7.845
298.15 K | 10.05
303.15 K | 12.75
313.15 K | 19.99
323.15 K | 30.32
333.15 K | 44.66
343.15 K | 64.09

COC(C)(C)C [2-methoxy-2-methylpropane]
[2]
Conditions | vapor or sublimation pressure [kPa]
263.15 K | 6.252
273.15 K | 10.64
283.15 K | 17.31
293.15 K | 27.06
298.15 K | 33.39
303.15 K | 40.86
313.15 K | 59.81
323.15 K | 85.15
333.15 K | 118.27
343.15 K | 160.66

C#CCCCC [1-hexyne]
[2]
Conditions | vapor or sublimation pressure [kPa]
263.15 K | 2.721
273.15 K | 4.893
283.15 K | 8.363
293.15 K | 13.67
298.15 K | 17.22
303.15 K | 21.5
313.15 K | 32.65
323.15 K | 48.09
333.15 K | 68.9
343.15 K | 96.32
